These results are taken from patent US11066455B2, “Tmem100 peptides and variants thereof and their use in treating or preventing diseases or conditions” (The Johns Hopkins University, priority 2014, dated 2021).

Entries after “also recorded” stand apart in the source; their conditions may differ. Read-outs that look alike come from different tables or passages of the source. Peptide text beside a SMILES is read from it. * marks the point of attachment. Myristoyl = CCCCCCCCCCCCCC(=O)*

Assay [1] deals with ongoing neuropathic pain in SNL rats. Kind of assay: Conditioned place preference test for ongoing pain in SNL rats. The assay is classed as in vivo, rat. Conditions: i.p. The source says: Ongoing, or spontaneous, pain, which is most bothersome to patients, is difficult to treat and difficult to study in animals. The conditioned place preference test has been successfully developed to reveal the presence of non-evoked, ongoing pain and pain relief based on the preference of an animal for the context paired with a pain-relief treatment. The conditioned place preference can also capture the aversive aspects of pain. Strikingly, many studies have shown that the rodent conditioned place preference test accurately reflects the effectiveness of human clinical treatments. Therefore, this test is a powerful approach to investigate the potential effectiveness of new treatments and mechanisms for relief of ongoing pain. Two previous studies have examined the role of TRPA1 in ongoing pain by the conditioned place preference test. […] Because the antagonists used in those studies (HC030031 and Chem5861528) target TRPA1 monomers, it is possible that T100-Mut can inhibit ongoing pain by modulating the TRPA1/V1 complex. This possibility was tested in rodents with SNL-induced ongoing pain using the conditioned place preference test. […] Systemic administration of gabapentin, an analgesic that is known to alleviate neuropathic pain, was used as a positive control (FIG. 16B).

Assay [2] has as its system neuropathic mechanical hypersensitivity in SNL rats. It counts as in vivo, rat. The source says: An modified L5 SNL model was produced as described in previously (He et al., 2014; Shechter et al., 2013). Male Sprague-Dawley rats (200-350 g, Harlan, Indianapolis, Ind.) were anesthetized with 2% isoflurane. The left L5 spinal nerve was ligated with a 6-0 silk suture and cut distally. The muscle layer was closed with 4-0 chromic gut suture and the skin closed with metal clips. For intrathecal catheter implantation, a small slit was cut in the atlanto-occipital membrane of rats, into which a saline-filled piece of PE-10 tubing (6-7 cm) was inserted (He et al., 2014). […] Hypersensitivity to punctuate mechanical stimulation was determined with the up-down method by using a series of von Frey filaments (0.38-15.1 g) applied for 4-6 seconds to the test area on the plantar surface of the hindpaw (Chaplan et al., 1994; He et al., 2014). The PWT was determined according to the formula provided by Dixon (Dixon, 1980). […] HC-030031 was purchased from Tocris Bioscience (Bristol, UK). Both drugs were dissolved in 10% dimethylsulfoxide (DMSO), 5% Tween 80 and 85% sterile saline solution. The final working solution which was injected by intrathecal route contained <1% DMSO. The number of animals used in each study was based on experience with similar studies and power analysis calculations. Animals were randomized to the different treatment groups and blinded the experimenter to drug treatment to reduce selection and observation bias. After the experiments were completed, no data point was excluded. STATISTICA 6.0 software (StatSoft, Inc., Tulsa, Okla.) was used to conduct all statistical analyses. The Tukey honestly significant difference (HSD) post-hoc test was used to compare specific data points. Bonferroni correction was applied for multiple comparisons. Two-tailed tests were performed, and data are expressed as mean±SEM; P<0.05 was considered significant in all tests.
(§1) The sequence from the last 28 amino acids of the C-terminus of the Tmem100-3Q mutant protein was synthesized and myristoylated at its N-terminus (myr-[…]-COOH) (SEQ ID NO: 8) by Twentyfirst Century Biochemicals. […] For the calcium imaging assay, the peptides were added to the calcium imaging buffer with a final concentration of 200 nM and incubated for at least […] at room temperature. For the mice behavioral assays, the peptides (5 μL, 2 mM) were injected subcutaneously in the hindpaw at least 30 minutes before testing. For the rat behavior assays, human T100-3Q (h-T100), a palmitoylated cell permeable peptide mutated based on the C terminus of human sequence in Tmem100, was applied. The sequence is Palmitoyl-[…]-COOH (SEQ ID NO: 7).

Assay [3] has as its system T1, TRPA1.
T1 construct: percentage of cells responsive to CA; other: shortened CPP 2 μM; CA 10 μM; HEK293 TRPA1+TRPV1; vs scrambled; percentage of cells responsive to MO; other: peptide 200 nM pre-treatment; 500 nM MO; HEK293T TRPA1+TRPV1; percentage of cells that respond to 100 nM MO and 10 μM CA; other: HEK293T TRPA1+TRPV1, Tmem100-3Q-transfected vs lacki; reduction in the percentage of cells responding to MO
Kind of assay: Calcium imaging of HEK293T cells expressing TRPA1 and TRPV1 (MO or CA). It counts as cell-based. As for the experimental part:
(§2) Calcium imaging assays were performed as previously described (Liu et al., 2009). Cells were loaded with 2 μM fura 2-acetomethoxy ester (Molecular Probes) for 30 min in the dark at room temperature or for 45 minutes at 37° C. for DRG and cell lines, respectively. After washing, cells were imaged at 340 and 380 nm excitation to detect intracellular free calcium under a fluorescent microscope (Nikon Eclipse TE2000-S) and Lambda 10B shutter (Sutter Instrument). The cells were bathed in calcium imaging buffer (pH 7.45, 130 mM NaCl, 3 mM KCl, 2.5 mM CaCl2, 10 mM HEPES, 10 mM glucose, 1.2 mM NaHCO3, with sucrose to increase osmolarity to 290 mOsm). The reagents and buffers were applied through a gravity perfusion system at a rate of […], including mustard oil (Sigma 377430), cinnamaldehyde (Sigma C80687), menthol (Sigma M2780), and capsaicin (Sigma M2028). Cells with high baseline 340/380 values (>1.5) were excluded for analysis. For DRG neurons, IB4 staining was performed in the chamber with the dilution of 1:200 (Molecular Probes 121412) for 160 seconds before washing off at the end of each test. Images were processed and analyzed with NIS-Elements BR 2.30 software (Nikon). A responsive cell was defined as one that with greater than a 20% increase in the 340/380 ratio above the baseline. Intracellular calibration for calcium was performed as previously described (Akopian et al., 2007). The data was analyzed with the experimenter blinded to the genotypes or constructs transfected.
(§3) DRG from 3 to 4-week old mice were collected in cold DH10 medium (90% DMEM/F-12, 10% FBS, 100 U/ml penicillin, and 100 μg/ml Streptomycin, Gibco) and treated with enzyme solution in HBSS containing collagenase (1.65 mg/mL, Worthington CLS I) and dispase (3.55 mg/mL, GIBCO 17105-041) at 37° C. for 30 minutes. After trituration and centrifugation, cells were resuspended in DH10, plated on glass coverslips coated with poly-D-lysine (0.5 mg/ml, Stoughton, Mass.) and laminin (10 μg/ml, Invitrogen), and cultured overnight in an incubator at 37° C. The neurons were tested within 24 hours. HEK293T, COS-7, and CHO cells were cultured in a medium consisting of 90% DMEM, 10% FBS, 100 U/mL penicillin, and 100 μg/ml Streptomycin. GlutaMAX (Gibco 35050-061) was also added for CHO cells. For calcium imaging, the cells were plated on glass coverslips coated with poly-D-lysine (0.5 mg/ml, Stoughton, Mass.). In the HEK cell studies the denominator is the cells expressing both TRPA1, TRPV1, and the designated constructs (i.e. Tmem100 or Tmem100-3Q mutant). mCherry:TRPV1:Tmem100 was transfected in 1:8:8 ratio into TRPA1 stable cell line (obtained from N. Tigue from GlaxoSmithKline) and used mCherry as the marker for the cells expressing the constructs 18 hours after transfection with Lipofectamine 2000. The transfection efficiency for Tmem100+TRPV1+TRPA1 triple-positive cells is 27±3%. This efficiency was determined by mCherry(+) divided by total number of cells in the bright fields.
as §1

The subject of assay [4] is paclitaxel (Taxol)-induced mechanical hyperalgesia in wild-type mice. Briefly: Paclitaxel-induced mechanical hyperalgesia. It counts as in vivo, mouse. To be noted: day 7 post paclitaxel; intradermal injection of T100-Mut. As for the experimental part: (§4) Mice were placed in a transparent plastic box (4.5×5×10 cm) on a metal mesh and acclimatized for 30 minutes prior to testing. Each mouse was tested more than 5 times at a specific force manually, and the threshold was determined by the lowest force needed to elicit responses more than 50% of the time.
Mice were injected with paclitaxel (Sigma T7191) intraperitoneally at the dose of 6 mg/kg, as previously described (Materazzi et al., 2012). Seven days after paclitaxel injection, the mice were assayed with Von Frey methods for mechanical hyperalgesia, both before and four hours after injection of cell permeable peptides.

In assay [5] the test system is MO-induced pain in TRPV1-/- mice. Kind of assay: Mustard oil injection in TRPV1-/- mice. It counts as in vivo, mouse. As for the experimental part: as §4
Mice were injected intradermally in the hind paw with 6 μL of 0.2% mustard oil (Sigma-Aldrich 377430) with Hamilton needles (80300). The mice were placed in a plexiglass cylinder, and the total time spent licking and flinching was recorded for the first 10 minutes after injection. Thirty and sixty minutes after injection, the mice were assayed with von Frey filaments for mechanical hyperalgesia.
The sequence from the last 28 amino acids of the C-terminus of the Tmem100-3Q mutant protein was synthesized and myristoylated at its N-terminus (myr-[…]-COOH) (SEQ ID NO: 8) by Twentyfirst Century Biochemicals. […] For the calcium imaging assay, the peptides were added to the calcium imaging buffer with a final concentration of 200 nM and incubated for at least […] at room temperature. For the mice behavioral assays, the peptides (5 μL, 2 mM) were injected subcutaneously in the hindpaw at least 30 minutes before testing. For the rat behavior assays, human T100-3Q (h-T100), a palmitoylated cell permeable peptide mutated based on the C terminus of human sequence in Tmem100, was applied. […]

Assay [6] concerns the target T2, TRPA1 (UniProt O75762).
T2 construct: other: cells expressing A1+V1; other: cells expressing A1+V1+Tmem100
Briefly: Calcium imaging of HEK293T cells expressing TRPA1 and TRPV1 (MO or CA). It counts as cell-based. As to the method: as §2, §3, §1

Assay [7] has as its target TRPA1 (expressed in heterologous cells: CHO, HEK293T). Kind of assay: cell-based or functional assay.

TRPA1 (expressed in heterologous cells: CHO, HEK293T), sequence (Q8BLA8 whole entry): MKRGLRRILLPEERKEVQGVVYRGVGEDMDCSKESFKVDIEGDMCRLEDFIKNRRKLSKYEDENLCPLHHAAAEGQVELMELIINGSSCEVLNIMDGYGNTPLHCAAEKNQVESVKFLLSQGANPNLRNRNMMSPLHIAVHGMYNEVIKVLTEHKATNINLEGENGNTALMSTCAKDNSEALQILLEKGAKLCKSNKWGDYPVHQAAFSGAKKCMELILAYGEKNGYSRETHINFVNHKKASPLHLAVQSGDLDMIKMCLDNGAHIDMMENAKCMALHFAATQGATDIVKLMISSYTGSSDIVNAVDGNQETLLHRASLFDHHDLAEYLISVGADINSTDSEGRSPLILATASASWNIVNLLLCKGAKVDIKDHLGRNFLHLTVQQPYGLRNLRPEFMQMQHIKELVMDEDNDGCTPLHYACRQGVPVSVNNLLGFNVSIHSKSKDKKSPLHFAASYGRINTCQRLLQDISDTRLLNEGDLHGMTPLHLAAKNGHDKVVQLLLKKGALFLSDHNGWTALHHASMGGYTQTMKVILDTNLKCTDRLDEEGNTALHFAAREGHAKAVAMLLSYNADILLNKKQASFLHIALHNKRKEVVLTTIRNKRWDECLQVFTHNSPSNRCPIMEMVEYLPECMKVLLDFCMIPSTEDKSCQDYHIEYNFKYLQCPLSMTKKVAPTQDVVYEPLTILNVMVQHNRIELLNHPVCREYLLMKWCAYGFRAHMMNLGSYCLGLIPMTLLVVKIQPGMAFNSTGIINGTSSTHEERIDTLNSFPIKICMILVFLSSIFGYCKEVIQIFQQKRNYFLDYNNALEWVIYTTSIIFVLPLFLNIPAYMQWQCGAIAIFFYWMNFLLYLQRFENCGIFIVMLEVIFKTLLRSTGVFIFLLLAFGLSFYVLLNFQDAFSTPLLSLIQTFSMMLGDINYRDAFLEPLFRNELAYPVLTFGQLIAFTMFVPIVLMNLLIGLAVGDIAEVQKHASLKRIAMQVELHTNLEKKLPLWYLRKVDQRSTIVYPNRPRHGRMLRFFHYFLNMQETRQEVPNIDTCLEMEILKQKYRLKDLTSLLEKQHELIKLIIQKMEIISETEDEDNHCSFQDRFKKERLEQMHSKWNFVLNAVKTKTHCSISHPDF

On to `NCC1(CC(=O)O)CCCCC1` [gabapentin, reference compound], for which the “conditioned place preference: time in gabapentin-paired chamber, SNL rats” value in assay [1] (60 mg/kg, saline-paired chamber as comparison) is recorded as “significantly increased”. In addition, the “chamber preference in sham-operated rats” value in assay [1] (gabapentin 60 mg/kg, sham-operated) was “did not induce chamber preference”.

As to `CCCCCCCCCCCCCC(=O)N[C@@H](Cc1c[nH]c2ccccc12)C(=O)N[C@@H](CCCCN)C(=O)N[C@H](C(=O)N[C@@H](CCCNC(=N)N)C(=O)N[C@@H](CCC(N)=O)C(=O)N[C@@H](CCCNC(=N)N)C(=O)N[C@@H](CC(N)=O)C(=O)N[C@@H](CCCCN)C(=O)N[C@@H](CCCCN)C(=O)N[C@H](C(=O)N[C@@H](CCC(N)=O)C(=O)N[C@@H](CCC(N)=O)C(=O)N[C@@H](CCC(N)=O)C(=O)N[C@@H](CCC(=O)O)C(=O)N[C@@H](CO)C(=O)N[C@@H](CCC(N)=O)C(=O)N[C@H](C(=O)N[C@@H](C)C(=O)N[C@@H](CC(C)C)C(=O)N[C@H](C(=O)N[C@H](C(=O)N[C@@H](CC(N)=O)C(=O)N[C@@H](CCC(N)=O)C(=O)N[C@@H](CCCNC(=N)N)C(=O)N[C@@H](CS)C(=O)N[C@@H](CC(C)C)C(=O)N[C@@H](Cc1ccccc1)C(=O)N[C@@H](C)C(=O)O)C(C)C)C(C)C)[C@@H](C)O)C(C)C)C(C)C` [T100-Mut] (Myristoyl-WKVRQRNKKVQQQESQTALVVNQRCLFA-OH), the “efficacy and potency of inhibiting neuropathic pain compared with HC-030031” value in assay [2] (SNL rats, intrathecal) is “comparable or better efficacy and potency”. The 50% effective concentration (EC50) in assay [2] (rat, in vivo) is 29.3 µM. Moreover, the “reduction in the percentage of cells responding to MO” value in the assay on TRPA1 [3] (heterologous system, T100-Mut treatment vs scrambled) was found to be 65%. For the same compound, in the assay with TRPA1 [3] (peptide 200 nM pre-treatment, 500 nM MO, HEK293T TRPA1+TRPV1), the “percentage of cells responsive to MO” value stood at 6±2.4%. In addition, the paclitaxel-induced mechanical hyperalgesia entry in assay [4] is reported as “attenuated; also recorded: alleviated”. In addition, in assay [5], the “MO-induced acute pain in TRPV1-/- mice” value is listed as “did not perturb; also recorded: no effect” and the “MO-induced mechanical hyperalgesia in TRPV1-/- mice” value is “did not perturb; also recorded: no effect”.

Take `CC(C)c1ccc(NC(=O)Cn2cnc3c2c(=O)n(C)c(=O)n3C)cc1` [HC-030031, reference compound]: the “contralateral PWT after drug injection” value in assay [2] (intrathecal 10 μl) was “did not change significantly”. Moreover, the “ipsilateral paw withdrawal threshold (PWT) vs pre-drug” value in assay [2] (intrathecal 10 μl, h-T100 10-100 μM, HC-030031 10-200 μM, scrambled 100 μM) is “increased”. For the same compound, the EC50 in assay [2] (intrathecal, 10 μl, SNL rats, read-out: EC50 for inhibiting pain) amounted to 58.2 µM.

For `O=CC=Cc1ccccc1` [CA, cinnamaldehyde, reference compound], the EC50 on TRPA1 [6] (cells expressing A1+V1) amounted to 57 µM; at TRPA1 [6] (cells expressing A1+V1+Tmem100), 21 µM.

In assay [7], “TRPV1 (expressed in heterologous cells: CHO, HEK293T) (receptor)” showed an MO (10 µM)-evoked Ca2+ influx, CHO cells, with Tmem100-3Q co-expressed (1:1:4) of 321 nM; an MO (10 µM)-gated whole-cell current density, CHO cells, with Tmem100-3Q co-expressed (1:1:4) of 39.2 pA/pF; an MO (10 µM)-induced single-channel activity (NPo), CHO cells, with Tmem100-3Q co-expressed (1:1:4) of 0.16; an MO (10 µM)-induced single-channel activity (NPo), CHO cells, with wild-type Tmem100 co-expressed (1:1:4) of 1.05.

Usually EC50 stands for the concentration giving half of the maximal effect.
